Data set [1] has as its system iron-overloaded J774A.1 cells. Briefly: Ferritin reduction assay in iron overloaded J774A.1 cells. The format is cell-based, mouse. The conditions noted are these: for Ferritin decrease: 48 h. The method, then:
J774A.1 cells were seeded in 6-well plates at a density of 30,000 cell/well and allowed to settle for 24 h at 37° C., 5% CO2 with DMEM complete medium before treatment. […] Subsequently, cells were washed with PBS and treated with DFO or oxNG-DFO at both 10 μM and 50 μM for 48 h. […] After 48 h incubation with DFO or oxNG-DFO, cells were lysed with cell lysis buffer (150 mM NaCl, 10 mM Tris, 1% Triton X-100 and protease inhibitor cocktail, pH 7.4) and total protein concentration was measured with the BCA protein assay kit. Cellular ferritin concentration was measured with a mouse ferritin ELISA kit. The results are plotted as the ratio of ng of ferritin per μg total protein concentration.
Subsequently, iron-loaded cells were treated for 48 h with 10 μM or 50 μM free DFO or equivalent oxNG2-DFO.

The test system of data set [2] is Human umbilical vein endothelial cells (HUVEC). Briefly: Cytotoxicity, resazurin assay, HUVEC. The data set is classed as cell-based. The settings on record: 48 h, DFO equivalents, read-out: Concentration to inhibit 50% cell growth. Here is the method:
Human umbilical vein endothelial cells (HUVEC) were obtained from Lonza, Inc., and cultured at 37° C./5% CO2 in EGM-2 complete medium. For the cytotoxicity assay, cells were seeded into 96-well plates at a density of 3,000 cell/well and allowed to equilibrate for 2 days before treatment. […] Readings from the wells without cells were used as blanks (Eblank), and the readings taken from control cells without treatment (Econtrol) 1 represented 100% cell viability. The viability of treated cells at each concentration can be calculated by the following equation: Cell Viability=100×(Esample˜Eblank)/(Econtrol˜Eblank)%
On the technique in general: Alamar Blue is a resazurin reagent that responds to reducing activity.

For the next data set, the system named is J774A.1 cells. Briefly: Cytotoxicity, resazurin assay, normal J774A.1 cells. The settings on record: Mus musculus, J774.A1, 48 h, DFO equivalents, read-out: Concentration giving 50% cell viability. The format is cell-based.
A short description of the next data set: in vitro. The settings on record: mouse. The method, then: (§1) Mouse macrophage/monocyte cell line, J774A.1, was purchased from American Type Culture Collection (ATCC). Cells were seeded in 96-well plates at a density of 3,000 cells/well, cultured at 37° C., 5% CO2 with DMEM complete medium (supplemented with 10% (v/v) heat-inactivated FBS, 100 I.U./mL penicillin and 100 μg/mL streptomycin), and allowed to settle for 24 h. Cells were then treated with DFO or oxNG-DFO at equivalent DFO concentrations of 1 mM prepared by 1:3 serial dilutions.
(§2) Cell viability was measured with the metabolism-based resazurin assay. Briefly, the substrate resazurin was dissolved in cell culture medium at a concentration of 44 μM, added to each well (100 μl) and incubated at 37° C. for 4 h. The fluorescence was measured with excitation at 560 nm and emission at 590 nm, on a SpectraMax Gemini EM microplate reader. Readings from the wells without cells were used as Eblank, and the readings from control cells without treatment (Econtrol) represented 100% cell viability. The viability of treated cells at different concentrations can be calculated by the following equation: […]
(§3) Similarly, cytotoxicity was also evaluated in iron-overloaded J774A.1 cells as described above.
(§4) To evaluate the cytotoxicity of the nanogels, cells in complete DMEM medium were treated with equivalent amounts of free DFO or oxNG2-DFO ranging from 0.05-1000 μM and allowed to incubate for 48 h prior to evaluating cytotoxicity with a metabolism-based resazurin assay.

The test system of data set [3] is iron-overloaded J774A.1 cells. Briefly: cells. The settings on record: Mus musculus, J774.A1, 48 h, read-out: Concentration giving 50% cell viability. The method, then:
as §1, §2, §3, §4

“And” between values parts separate entries of the source, which are not always exact repeats. Equal entries are not always repeated. Structures can show the parent of a compound that is named as a salt.

For orientation: viability means the share of living cells, or the viability signal relative to a control. Low readings indicate more harm to the cells, high ones less harm to the cells. For `CC(=O)N(O)CCCCCNC(=O)CCC(=O)N(O)CCCCCNC(=O)CCC(=O)N(O)CCCCCN` [DFO, Deferoxamine mesylate], the Cellular ferritin level in data set [1] is 5.33 ng/μg total protein and 2.84 ng/μg total protein. For the same compound, the Ferritin decrease came to 37.4% in data set [1] (10 μM DFO or equivalent) and 66.6% in data set [1] (50 μM DFO or equivalent). Besides, the IC50 in data set [2] was about 2000 nM; with J774A.1 cells it was about 10 µM; in data set [3], about 15 µM. The compound further gave a viability at 48 h, 10 μM in the data set “in vitro” of about 50%. In the data set “in vitro”, the viability at 48 h, 50 μM is under 50%.

Consider Ferric ammonium citrate [FAC], for which the “Cellular ferritin expression after iron loading” value in data set [1] worked out at 8.51 ng/µg.

The values are drawn from patent US9968633B2, “Stimuli responsive compositions for iron chelation” (WISCONSIN ALUMNI RESEARCH FOUNDATION, priority 2014, dated 2018).
